Measured values as given in patent US9139532B2, “Pyrazolyl guanidine F1F0-atpase inhibitors and therapeutic uses thereof” (Lycera Corporation, priority 2010, dated 2015).
Where two headings read alike, the source gives them in different places.

How the values were obtained:
F1F0-ATPase = target: T1, F1F0-ATPase (Bos taurus, UniProt P13621); experiment: Inhibition of F1F0-ATPase activity in synthesizing ATP; type: biochemical; conditions: inhibition of ATP synthesis by F1F0-ATPase; read-out: ATP Syn IC50
T1 construct: from tissue

Ramos cells = experiment: Cytotoxicity in Ramos cells; type: cell-based; conditions: cytotoxicity in Ramos cells, read-out: Ramos Cell EC50

Row | Structure (SMILES) | IC50 (F1F0-ATPase) | EC50 (Ramos cells; Homo sapiens) | EC50 (Ramos cells)
1 | COCC(C)N/C(=N/C(=O)c1ccc(F)c(F)c1)Nc1cc(C(F)(F)F)n[nH]1 (stereo not shown) [Compound A-106] | < 10 µM | < 10 µM | –
2 | CC(C)N/C(=N/C(=O)c1ccc(Cl)cc1)Nc1cc(C(F)(F)F)n[nH]1 [Compound A-107] | < 10 µM | < 10 µM | –
3 | O=C(/N=C(\Nc1cc(C(F)(F)F)n[nH]1)NC1CCC1)c1ccc(Cl)cc1 [Compound A-108] | < 10 µM | < 10 µM | –
4 | C[C@H](N/C(=N\C(=O)c1ccc(Cl)cc1)Nc1cc(C(F)(F)F)n[nH]1)C1CCCCC1 [Compound A-109] | < 10 µM | < 10 µM | –
5 | O=C(/N=C(\Nc1cc(C(F)(F)F)n[nH]1)NC1CCCOC1)c1ccc(Cl)cc1 (stereo not shown) [Compound A-110] | < 10 µM | < 10 µM | –
6 | COCC(C)N/C(=N/C(=O)c1ccc(Cl)cc1)Nc1cc(C(F)(F)F)n[nH]1 (stereo not shown) [Compound A-111] | < 10 µM | < 10 µM | –
7 | O=C(/N=C(/Nc1cc(C(F)(F)F)n[nH]1)NC1CCS(=O)(=O)C1)c1ccc(Cl)cc1 (stereo not shown) [Compound A-112] | < 10 µM | > 10 µM | –
8 | CC(C)N/C(=N/C(=O)c1ccc(Cl)c(F)c1)Nc1cc(C(F)(F)F)n[nH]1 [Compound A-113] | < 10 µM | < 10 µM | –
9 | O=C(/N=C(\Nc1cc(C(F)(F)F)n[nH]1)NC1CCC1)c1ccc(Cl)c(F)c1 [Compound A-114] | < 10 µM | < 10 µM | –
10 | O=C(/N=C(/Nc1cc(C(F)(F)F)n[nH]1)NC1CCCC1)c1ccc(Cl)c(F)c1 [Compound A-115] | < 10 µM | < 10 µM | –
11 | CCC(C)(C)N/C(=N/C(=O)c1ccc(Cl)c(F)c1)Nc1cc(C(F)(F)F)n[nH]1 [Compound A-116] | < 10 µM | < 10 µM | –
12 | C[C@@H](N/C(=N\C(=O)c1ccc(Cl)c(F)c1)Nc1cc(C(F)(F)F)n[nH]1)C1CCCCC1 [Compound A-117] | < 10 µM | < 10 µM | –
13 | O=C(/N=C(\Nc1cc(C(F)(F)F)n[nH]1)NC1CCOCC1)c1ccc(Cl)c(F)c1 [Compound A-118] | < 10 µM | < 10 µM | –
14 | O=C(/N=C(\Nc1cc(C(F)(F)F)n[nH]1)NC1CCCOC1)c1ccc(Cl)c(F)c1 (stereo not shown) [Compound A-119] | < 10 µM | < 10 µM | –
15 | COCC(C)N/C(=N/C(=O)c1ccc(Cl)c(F)c1)Nc1cc(C(F)(F)F)n[nH]1 (stereo not shown) [Compound A-120] | < 10 µM | < 10 µM | –
16 | O=C(/N=C(/Nc1cc(C(F)(F)F)n[nH]1)NC1CCS(=O)(=O)C1)c1ccc(Cl)c(F)c1 (stereo not shown) [Compound A-121] | < 10 µM | > 10 µM | –
17 | O=C(/N=C(\Nc1cc(C(F)(F)F)[nH]n1)NC1CCCC1)c1ccc(Cl)cc1 [Compound A-122] | < 10 µM | < 10 µM | –

Row | Structure (SMILES) | IC50 (F1F0-ATPase) | EC50 (Ramos cells; Homo sapiens) | EC50 (Ramos cells)
18 | CCC(C)(C)N/C(=N/C(=O)c1ccc(Cl)cc1)Nc1cc(C(F)(F)F)[nH]n1 [Compound A-123] | < 10 µM | < 10 µM | –
19 | O=C(/N=C(\Nc1cc(C(F)(F)F)[nH]n1)NC1CCOCC1)c1ccc(Cl)cc1 [Compound A-124] | < 10 µM | > 10 µM | –
20 | Cc1cc(N/C(=N\C(=O)c2ccc(C(F)(F)F)cc2)NC(C)(C)C)n[nH]1 [Compound A-125] | < 10 µM | – | < 10 µM
21 | Cc1ccc(-c2cc(N/C(=N\C(=O)c3ccc(F)c(F)c3)Nc3cc(F)cc(Cl)c3)n[nH]2)cc1F [Compound A-126] | > 10 µM | – | > 10 µM
22 | CC(C)NC(=NC(=O)c1cccc(C#N)c1)Nc1cc(-c2ccc(F)cc2)n[nH]1 [Compound A-127] | < 10 µM | > 10 µM | –
23 | CC(C)(C)N/C(=N/C(=O)c1cccc(C(F)(F)F)c1)Nc1cc(-c2cccc(Cl)c2)[nH]n1 [Compound A-128] | < 10 µM | – | < 10 µM
24 | CC(C)(C)N/C(=N/C(=O)c1cccc(Cl)c1)Nc1cc(-c2cccc(Cl)c2)[nH]n1 [Compound A-129] | < 10 µM | – | < 10 µM
25 | CC(C)(C)NC(=NC(=O)c1cccc(Cl)c1)Nc1cc(-c2ccc(Cl)cc2)n[nH]1 [Compound A-130] | < 10 µM | < 10 µM | –
26 | CC(C)(C)NC(=NC(=O)c1ccc(Cl)cc1)Nc1cc(-c2cccc(Cl)c2)[nH]n1 [Compound A-131] | < 10 µM | < 10 µM | –
27 | CC(C)(C)NC(=NC(=O)c1ccc(Cl)cc1)Nc1cc(-c2ccc(Cl)cc2)n[nH]1 [Compound A-132] | < 10 µM | < 10 µM | –
28 | CC(C)(C)NC(=NC(=O)c1cccc(F)c1)Nc1cc(-c2ccc(Cl)cc2)n[nH]1 [Compound A-133] | < 10 µM | < 10 µM | –
29 | CC(C)(C)N/C(=N/C(=O)c1ccc(F)cc1)Nc1cc(-c2cccc(Cl)c2)[nH]n1 [Compound A-134] | < 10 µM | – | < 10 µM
30 | CC(C)(C)NC(=NC(=O)c1ccc(F)cc1)Nc1cc(-c2ccc(Cl)cc2)n[nH]1 [Compound A-135] | < 10 µM | < 10 µM | –
31 | CC(C)(C)N/C(=N/C(=O)c1ccc(F)c(F)c1)Nc1cc(-c2cccc(Cl)c2)[nH]n1 [Compound A-136] | < 10 µM | – | < 10 µM
32 | CC(C)(C)N/C(=N/C(=O)c1ccc(F)c(F)c1)Nc1cc(-c2ccc(Cl)cc2)[nH]n1 [Compound A-137] | < 10 µM | – | < 10 µM
33 | CC(C)(C)N/C(=N/C(=O)c1ccc(C(F)(F)F)cc1)Nc1cc(-c2ccc(Cl)cc2)[nH]n1 [Compound A-138] | < 10 µM | – | < 10 µM

Continued, in another order:

Row | IC50 (F1F0-ATPase) | Structure (SMILES) | EC50 (Ramos cells; Homo sapiens) | EC50 (Ramos cells)
34 | < 10 µM | Cc1cc(C(=O)/N=C(/NCc2ccc(F)cc2Cl)Nc2cc(C(F)(F)F)[nH]n2)ccn1 [Compound A-86] | > 10 µM | –
35 | < 10 µM | O=C(/N=C(\Nc1cc(C(F)(F)F)[nH]n1)NC1CCCCCC1)c1ccc(C(F)F)cc1 [Compound A-87] | < 10 µM | –
36 | < 10 µM | CC(C)(C)CN/C(=N/C(=O)c1ccc(F)c(F)c1)Nc1cc(C(F)F)[nH]n1 [Compound A-88] | < 10 µM | –
37 | < 10 µM | CC(N/C(=N\C(=O)c1ccc(C(F)(F)F)cc1)Nc1cc(C(F)(F)F)n[nH]1)c1cccc(Cl)c1 (stereo not shown) [Compound A-89] | < 10 µM | –
38 | < 10 µM | CC(C)N/C(=N/C(=O)c1ccc(C(F)(F)F)cc1)Nc1cc(C(F)(F)F)n[nH]1 [Compound A-90] | < 10 µM | –
39 | < 10 µM | O=C(/N=C(\Nc1cc(C(F)(F)F)n[nH]1)NC1CCC1)c1ccc(C(F)(F)F)cc1 [Compound A-91] | < 10 µM | –
40 | < 10 µM | O=C(/N=C(/Nc1cc(C(F)(F)F)n[nH]1)NC1CCCC1)c1ccc(C(F)(F)F)cc1 [Compound A-92] | < 10 µM | –
41 | < 10 µM | CCC(C)(C)N/C(=N/C(=O)c1ccc(C(F)(F)F)cc1)Nc1cc(C(F)(F)F)n[nH]1 [Compound A-93] | < 10 µM | –
42 | < 10 µM | C[C@H](N/C(=N\C(=O)c1ccc(C(F)(F)F)cc1)Nc1cc(C(F)(F)F)n[nH]1)C1CCCCC1 [Compound A-94] | < 10 µM | –
43 | < 10 µM | O=C(/N=C(\Nc1cc(C(F)(F)F)n[nH]1)NC1CCOCC1)c1ccc(C(F)(F)F)cc1 [Compound A-95] | < 10 µM | –
44 | < 10 µM | O=C(/N=C(\Nc1cc(C(F)(F)F)n[nH]1)NC1CCCOC1)c1ccc(C(F)(F)F)cc1 (stereo not shown) [Compound A-96] | < 10 µM | –
45 | < 10 µM | COCC(C)N/C(=N/C(=O)c1ccc(C(F)(F)F)cc1)Nc1cc(C(F)(F)F)n[nH]1 (stereo not shown) [Compound A-97] | < 10 µM | –
46 | < 10 µM | CC(C)N/C(=N/C(=O)c1ccc(F)c(F)c1)Nc1cc(C(F)(F)F)n[nH]1 [Compound A-98] | < 10 µM | –
47 | < 10 µM | O=C(/N=C(\Nc1cc(C(F)(F)F)n[nH]1)NC1CCC1)c1ccc(F)c(F)c1 [Compound A-99] | < 10 µM | –
48 | < 10 µM | O=C(/N=C(/Nc1cc(C(F)(F)F)n[nH]1)NC1CCCC1)c1ccc(F)c(F)c1 [Compound A-100] | < 10 µM | –
49 | < 10 µM | CCC(C)(C)N/C(=N/C(=O)c1ccc(F)c(F)c1)Nc1cc(C(F)(F)F)n[nH]1 [Compound A-101] | < 10 µM | –
50 | < 10 µM | C[C@@H](N/C(=N\C(=O)c1ccc(F)c(F)c1)Nc1cc(C(F)(F)F)n[nH]1)C1CCCCC1 [Compound A-102] | < 10 µM | –
51 | < 10 µM | O=C(/N=C(/Nc1cc(C(F)(F)F)n[nH]1)NC1CCOC1)c1ccc(F)c(F)c1 (stereo not shown) [Compound A-103] | < 10 µM | –
52 | < 10 µM | O=C(/N=C(\Nc1cc(C(F)(F)F)n[nH]1)NC1CCOCC1)c1ccc(F)c(F)c1 [Compound A-104] | > 10 µM | –
53 | < 10 µM | O=C(/N=C(\Nc1cc(C(F)(F)F)n[nH]1)NC1CCCOC1)c1ccc(F)c(F)c1 (stereo not shown) [Compound A-105] | < 10 µM | –
